From US20240368145A1, “METHODS FOR TREATING CANCER” (IMMUNIC AG, priority 2021, published 2024) come the findings set out here.

SMILES strings stand for the structures.

Common to all, as to assay type: cell-based
One assay concerns FKBP5 mRNA. Description: Expression of AR target genes (qRT-PCR) in 22Rv1: FKBP5. To be noted: Homo sapiens; 22Rv1, 1 μM, 48h; relative to vehicle control (DMSO).
A further assay deals with HUT78 (NHL). Briefly: Oncotest inhibition of viability, HUT78. The following applies: Homo sapiens; NHL cell line HUT78; read-out: IC50 range.
The next assay has as its system MV411 (AML). Description: Oncotest inhibition of viability, MV411. The following applies: Homo sapiens, MV4-11; AML cell line MV411; read-out: IC50 range.
The subject of the next assay is IM9 (MM). Briefly: Oncotest inhibition of viability, IM9. The following applies: MM cell line IM9; read-out: IC50 range.
A further assay deals with RAJI (NHL). Description: Oncotest inhibition of viability, RAJI. The following applies: Homo sapiens; NHL cell line RAJI; read-out: IC50 range.
The test system of another assay is JURLMK1 (CML). Description: Oncotest inhibition of viability, JURLMK1. To be noted: CML cell line JURLMK1; read-out: IC50 range.

In the assay with FKBP5 mRNA, `CC(C)(O)CCn1ncc(-c2onc(-c3c(F)cccc3Cl)c2-c2ncccn2)c1C(F)(F)F` [2/8] returned a mrna remaining at 1 µM of 38.1%.
As for `COC(=O)c1c(-c2c(F)cccc2Cl)noc1-c1cnn(-c2cccc(Cl)c2)c1C(F)(F)F` [Example 1, Methyl 3-(2-chloro-6-fluorophenyl)-5-(1-(3-chlorophenyl)-5-(trifluoromethyl)-1H-pyrazol-4-yl)isoxazole-4-carboxylate], the IC50 in the assay with HUT78 (NHL), in the assay on MV411 (AML), in the assay with IM9 (MM), in the assay on RAJI (NHL) and in the assay on JURLMK1 (CML) was under 10 nM throughout.
